EC50, IC50 and outcome data for 72 molecules are collected here from PubChem BioAssay AID179 (DTP/NCI, 2004).

The assay deals with CEM cells HIV-1 protection, formazan growth assay. Kind of assay: NCI AIDS Antiviral Assay. The following applies: for pIC50: measured here: growth of uninfected CEM cells. The gist of the method: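 Five concentrations of each compound were applied to infected and uninfected human CEM cells. Protection from HIV-1 was judged from growth measured with a soluble formazan assay.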

pEC50, pIC50: −log10 of the molar value. Values joined by “and” are separate entries in the source; they are usually repeats but may differ in a detail not shown here. Equal entries are not always repeated. Active and inactive are the calls of the source.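 How the source made its calls: active means compounds giving half or more protection of infected cells from virus-caused growth loss, again on retest; inactive means the rest.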

On to `Cc1nnc(N)nc1C/C=C/C(C)Sc1ccc(Cl)cc1` (configuration not stated), for which the pEC50 is below 3.70 and the pIC50 is 5.18.
Take `CC(=O)OCC1OC(OC2C(COC(C)=O)OC(Sc3ccccc3C)C(OC(C)=O)C2OC(C)=O)C(OC(C)=O)C(OC(C)=O)C1OC(C)=O` (configuration not stated): the pEC50 is below 4.60 and the pIC50 was below 4.60.
As for `Cc1cc(C)cc(N(C2=NCCS2)C2=NCCS2)c1`, the pEC50 was below 3.70 and the pIC50 was below 3.70.
As to `Cn1nc2c(c(Cl)c1=O)Nc1ccccc1O2`, the pEC50 was below 3.70 and the pIC50 is below 3.70.
`C=C(C(=C)P(=S)(c1ccccc1)c1ccccc1)P(=S)(c1ccccc1)c1ccccc1`: the pEC50 is below 4.57 and the pIC50 was below 4.57.
Turning to `N=c1oc2ccc(Cl)cc2cc1C(=O)Nc1ccccc1`, the pEC50 is below 3.82 and the pIC50 is 4.66.
For the molecule `O=c1[nH]c2cc(O)ccc2c2cc3c(c(O)c12)OCO3`, the outcome was inactive.
On to `O=[N+]([O-])c1c(C=Nc2ccccc2)oc(-c2c(O)ccc3ccccc23)c1-c1c(O)ccc2ccccc12`, for which the pEC50 was below 3.70 and the pIC50 was 4.50.
Consider `OCC(O)C(O)C(O)c1nn(-c2ccccc2)c2nc3cc(Cl)c(Cl)cc3nc12` (configuration not stated), for which the result was inactive.
Take `Cc1csc2nc(-c3ccccc3)cn12`: the pEC50 was below 3.36 and the pIC50 is 3.69.
For `Cc1c(=O)n(O)c2ccccc2[n+]1[O-]`, in that order: below 3.70 and below 3.70.
The like results for `Nc1c(S(=O)(=O)c2ccccc2)c2nc3ccccc3nc2n2c1nc1ccccc12` were, in that order, below 5.05 and below 5.05.
With `COC(=O)CCCC(=O)C1=Nc2ccccc2CN(c2ccc(Cl)cc2)N1`, the pEC50 was below 3.70 and the pIC50 is 3.90.
On to `Nc1ccccc1C(=O)CCc1ccccc1C(=O)O`, for which the outcome was inactive.
On to `N#Cc1cc2c(N)ncnc2nc1N1CCCC1`, for which the pEC50 was below 3.70 and the pIC50 was 3.72.
Turning to `CC1=NN(c2ccccc2)C(=O)C1N=Nc1ccc(S(=O)(=O)Nc2ccccn2)cc1` (configuration not stated), the result was inactive.
`CCC1(O)N=C(c2ccccc2)c2ccccc2-n2cccc21` (configuration not stated): the pEC50 is below 3.70 and the pIC50 was 3.78.
For `COC(=O)C(C(=O)C(=O)Nc1ccc(C)cc1C)c1nc2ccc([N+](=O)[O-])cc2[nH]c1=O` (configuration not stated), in that order: below 3.24 and 3.89.
The like results for `CCOC(=O)C1=C(C)NC(C)=C(C(=O)OCCNC(=O)c2ccc(N=[N+]=[N-])cc2)C1c1ccccc1C(F)(F)F` (configuration not stated) were, in that order, below 3.70 and 4.98.
In the case of `CCOC(=O)C(O)(NC(=O)c1ccccc1F)C(F)(F)F` (configuration not stated), the result was inactive.
Molecule `CCCNC(=O)Sc1ccccc1C(=O)N[C@H](C)C(N)=O` had a pEC50 below 5.33.
As to `CN(C)C(=O)OC1C(=O)N(C)c2ccc(Cl)cc2C2(c3ccccc3)N1C2(Cl)Cl` (configuration not stated), the pEC50 is below 3.70 and the pIC50 is 4.97.
The like results for `CCOC(=O)c1c(NC(=O)c2ccc(OC)cc2)sc2c1CCCC2` were, in that order, below 3.82 and below 3.82.
For `CCOc1ccc(NC(=O)/C(=N\NC(C)(C)C)C2C(=O)Nc3ccccc3S2=O)cc1` (configuration not stated), in that order: below 4.37 and below 4.37.
For `O/C(=C\c1nc2ccccc2nc1/C=C(\O)c1ccc(Cl)cc1)c1ccccc1`, in that order: below 3.70 and 5.19.
`CCN(CC)CCSc1c2ccccc2nc2cc(NCC(=O)Nc3ccccc3-c3ccccc3NC(=O)CNc3ccc4c(SCCN(CC)CC)c5ccccc5nc4c3)ccc12`: the pEC50 is below 4.48 and the pIC50 was below 4.48.
Take `CCOP(=O)(CC1CC(O)(CNc2cc(Cl)nc(N)n2)C1)OCC` (configuration not stated): the pEC50 was below 3.70 and the pIC50 is below 3.70.
Take `COc1cc(C2c3cc4c(c(O)c3C[C@H]3COC(=O)[C@@H]23)OCO4)cc(OC)c1O` (some centres not stated): the pEC50 is below 3.70 and the pIC50 is 7.20.
`CCOC(=O)CC1=CSC2=NCCN12`: the outcome was inactive.
As for `O=[N+]([O-])c1cccc(C2=NON(c3ncccn3)C3N=CC=CN23)c1` (configuration not stated), the pEC50 is below 5.23 and the pIC50 is below 5.23.
As for `[N-]=[N+]=Nc1ccc(CNc2cc(=O)[nH]c(=O)[nH]2)cc1`, the pEC50 is below 3.70 and the pIC50 is below 3.70.
For the molecule `O=C(NC(OCc1ccccc1)(C(F)(F)F)C(F)(F)F)OCc1ccccc1`, the pEC50 was below 3.70 and the pIC50 was 4.49.
With `CC(=O)Oc1ccc2c(c1)[nH]c1c3ccc(OC(C)=O)cc3oc(=O)c21`, the pEC50 was below 3.70 and the pIC50 is 4.93.
For `Cc1cn(C2CC(O)C(CO)O2)c(=O)n2nnnc12` (configuration not stated), the result was inactive.
With `OC(CCNC12CC3CC(CC(C3)C1)C2)c1ccccc1` (configuration not stated), the outcome was inactive.
Take `N#Cc1cccc(C=NC23CC4CC(CC(C4)C2)C3)c1`: the pEC50 is below 4.01 and the pIC50 is 4.13.
On to `C[C@]12CC[C@H](O)CC1=CC[C@@H]1C2CC[C@]2(C)Nc3[nH]ncc3CC12` (some centres not stated), for which the outcome was inactive.
For the molecule `O=C(c1ccc(Cl)cc1Cl)N(/N=C/C=C/c1ccccc1)c1nnc(-c2ccccc2)c(-c2ccccc2)n1`, the pEC50 is below 4.88 and the pIC50 is below 4.88.
`O=C(OCc1c(-c2ccccc2)nn(-c2ccccc2)c1COC(=O)Oc1ccccc1)Oc1ccccc1`: the pEC50 was below 3.70 and the pIC50 was below 3.70.
With `CCC1(CC)c2ccccc2C(CC)(CC)[N+]1(C)C`, the pEC50 was below 3.70 and the pIC50 is 4.07.
For `Cc1ccc(S(=O)(=O)N2CC2CCCCC=O)cc1` (configuration not stated), in that order: below 3.70 and 4.50.
As for `Nc1c(Br)cc2c(c1Br)Cc1cc(Br)ccc1-2`, the pEC50 was below 3.70 and the pIC50 was below 3.70.
Regarding `O=C(O)c1cc[c]([Sb](=[O])([OH])[OH])cc1[N+](=O)[O-]`, the pEC50 is 4.99 and the pIC50 was 3.40.
For `CN(C)CCSc1ccc(-c2ccc(-c3ccc(SCCN(C)C)cc3)nn2)cc1`, in that order: 5.16 and 5.09.
On to `CC1=CC(C)(C)N=C2SC(c3ccc(N)cc3)=NN12`, for which the pEC50 was below 3.60 and the pIC50 is 5.70.
For `Cn1c(=O)c2c(nc(N)n2C2OC(CO)C(O)C2O)n(C)c1=O` (configuration not stated), in that order: below 3.70 and below 3.70.
The like results for `O=[N+]([O-])c1ccc(NSc2ccccc2)cc1` were, in that order, below 3.70 and 5.03.
Turning to `CCc1nnc2sc(=S)[nH]n12`, the result was inactive.
On to `O=c1c2ccccc2[nH]c2c(Cl)cc(Cl)c(NC3CCCCC3)c12`, for which the pEC50 was below 3.70 and the pIC50 is 4.55.
Consider `C=CCNC(=S)/N=C/C(C(=O)Nc1ccc(Cl)cc1)=C(\C)O`, for which the pEC50 is below 3.70 and the pIC50 is 3.89.
For `CCC12C=CCN3CCC4(c5cc(C(c6ccc(OC)cc6)c6cc7ccccc7n6S(=O)(=O)c6ccccc6)c(OC)cc5N(C)C4C(O)(C(=O)OC)C1OC(C)=O)C32` (configuration not stated), in that order: below 5.06 and below 5.06.
The like results for `COC(=O)C(=O)C(C(=O)C(=O)Nc1ccccc1C(=O)OC)c1nc2ccc(C(=O)c3ccccc3)cc2[nH]c1=O` (configuration not stated) were, in that order, below 4.05 and 4.28.
For `CCOC(=O)c1ccc(NC(=O)O/N=C(/Cl)CC)cc1`, the outcome was inactive.
As for `C=C1C(=O)OC2C3C(=C)[C@@H](OC(C)=O)CC3C(C)=CC(OC(=O)C(C)(OC(C)=O)C(C)OC(C)=O)[C@@H]12` (some centres not stated), the pEC50 was below 3.70 and the pIC50 was 4.99.
For `COc1ccc(C2=NOC3COC4C=CC=CC4OCC23)cc1` (configuration not stated), in that order: below 4.08 and below 4.08.
The like results for `COC(=O)c1c2c(c(-c3ccccc3)c3c1-c1nc(Cl)ccc1CC3)CCc1ccc(Cl)nc1-2` were, in that order, below 4.69 and below 4.69.
For `O=C1CCCCC/C=C2/CC[C@H](Sc3ccccc3)[C@@H]12`, in that order: below 3.70 and 4.27.
Take `O=C1CCCCC(=O)OC2(CCCCC2=O)CC1` (configuration not stated): the pEC50 is below 3.70 and the pIC50 is below 3.70.
Regarding `C/C=C\C(O)C#Cc1cnc(OC)nc1OC` (configuration not stated), the pEC50 is below 3.70 and the pIC50 was 4.37.
Take `COc1ccc(-c2c(C(C)=O)c(-c3ccccc3)n(C3OC(COC(C)=O)C(OC(C)=O)C(OC(C)=O)C3OC(C)=O)c(=S)c2C#N)cc1O` (configuration not stated): the pEC50 is below 3.70; the pIC50 was 4.61 and 4.41.
`Cc1ccc(S(=O)(=O)NCCCSCCN)cc1`: the pEC50 was below 3.20 and the pIC50 is 3.25.
The like results for `COc1ccc(SCc2ccc(C(=O)O)cc2)cc1` were, in that order, below 4.58 and below 4.58.
Regarding `CCCC(C(=O)OCCN(CC)CC)(c1ccccc1)c1ccccc1`, the pEC50 is below 3.70; the pIC50 was 3.99 and 4.43.
`O=C(O)c1cc(N=Cc2cc(O)ccc2O)ccc1O`: the pEC50 was below 3.74 and the pIC50 was 4.64.
For `C#CC(O)/C=C/C(O)CCCC(O)CC#CC(O)C#CC(O)CCCC(O)/C=C/CCCCCC(=O)CCCCCCCCCCCCCC(O)C(O)C#CC(=O)O` (configuration not stated), in that order: below 4.00 and 4.23.
For `O=C1c2ccccc2C(=O)c2c1ccc(O)c2O`, in that order: below 4.14 and 4.37.
The like results for `Nc1c2ccccc2nc2ccc3c(=O)cc(-c4ccccc4)oc3c12` were, in that order, below 4.70 and 6.04.
Consider `CC(=O)NC(C)(C)C1CC=C(C)CC1` (configuration not stated), for which the pEC50 is below 3.70 and the pIC50 is below 3.70.
With `Cc1cn(C2CC(N=[N+]=[N-])C(CO)O2)c(=O)nc1N` (configuration not stated), the pEC50 is below 3.70 and the pIC50 is below 3.70.
Take `C=CC(=O)N1C/C(=C\c2ccc(OC)cc2)C(=O)/C(=C/c2ccc(OC)cc2)C1`: the pEC50 is 6.70 and the pIC50 was 5.62.
The like results for `C[n+]1cn(CC(=O)c2ccccc2)c(C(N)=O)c1N` were, in that order, below 3.58 and 3.67.
For `COC(=O)CCC1(CCC(=O)OC)CCCCCCC(CCC(=O)OC)(CCC(=O)OC)C(=O)C1=O`, in that order: below 3.70 and below 3.70.

For orientation: pEC50 means −log10 of the EC50, conventionally taken in molar units. The term pIC50 denotes the IC50 on a negative log10 scale, so that one unit is a factor of ten. Read a high pIC50 as a small IC50.
